Experimental data as given in US11051515B2, “3-acyl-benzamides and their use as herbicides” (Bayer Aktiengesellschaft, priority 2017, dated 2021).

Key:
[1] = tested on: ALOMY; assay: Pre-emergence action against ALOMY; format: in vivo, Alopecurus myosuroides; conditions: dosage 320 g/ha, pre-emergence, scored visually after 3 weeks vs untreated controls, 100% = plants have died, 0% = like control plants
Procedure, shortened: (§1)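 Seeds sown in sandy loam in wood-fiber pots and covered with soil. Greenhouse growth; visual damage scored after 3 weeks versus untreated controls (100% = dead, 0% = like control).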

[2] = tested on: AVEFA; assay: Pre-emergence action against AVEFA; format: in vivo, Avena fatua; conditions: dosage 320 g/ha, scored visually after 3 weeks vs untreated controls
Procedure, shortened: as §1

[3] = tested on: CYPES; assay: Pre-emergence action against CYPES; format: in vivo, Cyperus esculentus; conditions: pre-emergence, dosage 320 g/ha, scored visually after 3 weeks vs untreated controls
Procedure, shortened: as §1

[4] = tested on: ECHCG; assay: Pre-emergence action against ECHCG; format: in vivo, Echinochloa crus-galli; conditions: pre-emergence, dosage 320 g/ha, scored visually after 3 weeks vs untreated controls
Procedure, shortened: as §1

[5] = tested on: LOLRI; assay: Pre-emergence action against LOLRI; format: in vivo, Lolium rigidum; conditions: dosage 320 g/ha, scored visually after 3 weeks vs untreated controls
Procedure, shortened: as §1

[6] = tested on: SETVI; assay: Pre-emergence action against SETVI; format: in vivo, Setaria viridis; conditions: pre-emergence, dosage 320 g/ha, scored visually after 3 weeks vs untreated controls
Procedure, shortened: as §1

[7] = tested on: ABUTH; assay: Pre-emergence action against ABUTH; format: in vivo, Abutilon theophrasti; conditions: pre-emergence, dosage 320 g/ha, scored visually after 3 weeks vs untreated controls
Procedure, shortened: as §1

[8] = tested on: AMARE; assay: Pre-emergence action against AMARE; format: in vivo, Amaranthus retroflexus; conditions: pre-emergence, dosage 320 g/ha, scored visually after 3 weeks vs untreated controls
Procedure, shortened: as §1

[9] = tested on: MATIN; assay: Pre-emergence action against MATIN; format: in vivo, Matricaria inodora; conditions: Dosage 320 g/ha, pre-emergence
Procedure, shortened: as §1

[10] = tested on: POLCO; assay: Pre-emergence action against POLCO; format: in vivo, Polygonum convolvulus; conditions: Fallopia convolvulus, 504 h; Dosage 320 g/ha, pre-emergence
Procedure, shortened: as §1

[11] = tested on: STEME; assay: Pre-emergence action against STEME; format: in vivo, Stellaria media; conditions: Dosage 320 g/ha, pre-emergence
Procedure, shortened: as §1

[12] = tested on: VIOTR; assay: Pre-emergence action against VIOTR; format: in vivo, Viola tricolor; conditions: Dosage 320 g/ha, pre-emergence
Procedure, shortened: as §1

[13] = tested on: VERPE; assay: Pre-emergence action against VERPE; format: in vivo, Veronica persica; conditions: Dosage 320 g/ha, pre-emergence
Procedure, shortened: as §1

[14] = tested on: CYPES; assay: Post-emergence action against CYPES; format: in vivo, Cyperus esculentus; conditions: Cyperus esculentus, 504 h; post-emergence, dosage 80 g/ha, visual assessment about 3 weeks after treatment vs untreated controls; read-out: Post-emergence action against CYPES (herbicidal action in percent)
Procedure, shortened: (§2)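 Weeds grown in sandy loam in greenhouse, treated at one-leaf stage (2–3 weeks after sowing) with WP or EC formulations sprayed as aqueous suspension/emulsion at 600 to […] water with 0.2% wetting agent. Visual rating after about 3 weeks versus untreated controls, as % herbicidal action (100% = plants dead, 0% = like control).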

[15] = tested on: ECHCG; assay: Post-emergence action against ECHCG; format: in vivo, Echinochloa crus-galli; conditions: post-emergence, dosage 80 g/ha, visual assessment about 3 weeks after treatment vs untreated controls
Procedure, shortened: as §2

[16] = tested on: LOLRI; assay: Post-emergence action against LOLRI; format: in vivo, Lolium rigidum; conditions: dosage 80 g/ha, visual assessment about 3 weeks after treatment vs untreated controls
Experimental: Seeds of monocotyledonous and dicotyledonous weed and crop plants are laid out in sandy loam soil in wood-fiber pots, covered with soil and cultivated in a greenhouse under good growth conditions. 2 to 3 weeks after sowing, the test plants are treated at the one-leaf stage. The compounds of the invention, formulated in the form of wettable powders (WP) or as emulsion concentrates (EC), are then sprayed onto the green parts of the plants in the form of an aqueous suspension or emulsion at a water application rate equating to […], with addition of 0.2% wetting agent. After the test plants have been left to stand in the greenhouse under optimal growth conditions for about 3 weeks, the action of the preparations is assessed visually in comparison to untreated controls (herbicidal action in percent (%): 100% activity=the plants have died, 0% activity=like control plants). […] At the same time, inventive compounds leave Gramineae crops such as barley, wheat, rye, millet/Sorghum, corn or rice virtually undamaged when applied post-emergence, even at high active ingredient dosages. In addition, some substances are also harmless to dicotyledonous crops such as soya, cotton, oilseed rape, sugar beet or potatoes. Some of the compounds according to the invention have high selectivity and are therefore suitable for controlling unwanted vegetation in agricultural crops by the post-emergence method. The data of Tables B18 to B34 below illustrate, in an exemplary manner, the […] herbicidal action of the compounds according to the invention, the herbicidal activity being stated in percent.

[17] = tested on: SETVI; assay: Post-emergence action against SETVI; format: in vivo, Setaria viridis; conditions: post-emergence, dosage 80 g/ha, visual assessment about 3 weeks after treatment vs untreated controls
Procedure, shortened: as §2

[18] = tested on: ABUTH; assay: Post-emergence action against ABUTH; format: in vivo, Abutilon theophrasti; conditions: post-emergence, dosage 80 g/ha, visual assessment about 3 weeks after treatment vs untreated controls
Procedure, shortened: as §2

[19] = tested on: AMARE; assay: Post-emergence action against AMARE; format: in vivo, Amaranthus retroflexus; conditions: post-emergence, dosage 80 g/ha, visual assessment about 3 weeks after treatment vs untreated controls
Procedure, shortened: as §2

[20] = tested on: MATIN; assay: Post-emergence action against MATIN; format: in vivo, Matricaria inodora; conditions: post-emergence, dosage 80 g/ha, visual assessment about 3 weeks after treatment vs untreated controls
Procedure, shortened: as §2

[21] = tested on: PHBPU; assay: Post-emergence action against PHBPU; format: in vivo, Pharbitis purpurea; conditions: post-emergence, dosage 80 g/ha
Procedure, shortened: as §2

[22] = tested on: STEME; assay: Post-emergence action against STEME; format: in vivo, Stellaria media; conditions: Stellaria media, 504 h; post-emergence, dosage 80 g/ha
Procedure, shortened: as §2

[23] = tested on: VIOTR; assay: Post-emergence action against VIOTR; format: in vivo, Viola tricolor; conditions: Viola tricolor, 504 h; post-emergence, dosage 80 g/ha
Procedure, shortened: as §2

[24] = tested on: VERPE; assay: Post-emergence action against VERPE; format: in vivo, Veronica persica; conditions: Veronica persica, 504 h, dosage 80 g/ha
Procedure, shortened: as §2

[25] = tested on: AVEFA; assay: Post-emergence action against AVEFA; format: in vivo, Avena fatua; conditions: post-emergence, dosage 80 g/ha, visual assessment about 3 weeks after treatment vs untreated controls
Procedure, shortened: as §2

With `CC(C)C(=O)c1c(C(F)(F)F)ccc(C(=O)Nc2nnnn2C)c1Cl` [1-140] the pest or weed control at 320 g/ha ([1]; Alopecurus myosuroides, 504 h, read-out: Pre-emergence action against ALOMY (herbicidal activity in percent)) was 100%, the pest or weed control at 320 g/ha ([2]; Avena fatua, 504 h, read-out: Pre-emergence action against AVEFA (herbicidal activity)) was 80% and the pest or weed control at 320 g/ha ([3]; Cyperus esculentus, 504 h, read-out: Pre-emergence action against CYPES (herbicidal activity)) was 90%. For the same molecule, the pest or weed control at 320 g/ha ([4]; Echinochloa crus-galli, 504 h, read-out: Pre-emergence action against ECHCG (herbicidal activity)) was 100%, the pest or weed control at 320 g/ha ([5]; Lolium rigidum, 504 h, read-out: Pre-emergence action against LOLRI (herbicidal activity)) was 100% and the pest or weed control at 320 g/ha ([6]; Setaria viridis, 504 h, read-out: SETVI (Table B8, pre-emergence herbicidal activity)) was 100%. It also gave a pest or weed control at 320 g/ha ([7]; Abutilon theophrasti, 504 h, read-out: Pre-emergence action against ABUTH (herbicidal activity)) of 100%, a pest or weed control at 320 g/ha ([8]; Amaranthus retroflexus, 504 h, read-out: Pre-emergence action against AMARE (herbicidal activity)) of 100% and a pest or weed control at 320 g/ha ([9]; Tripleurospermum inodorum, 504 h) of 100%. The pest or weed control at 320 g/ha [10] was 80%, the pest or weed control at 320 g/ha ([11]; Stellaria media, 504 h) was 100% and the pest or weed control at 320 g/ha ([12]; Viola tricolor, 504 h) was 100%. It also gave a pest or weed control at 320 g/ha ([13]; Veronica persica, 504 h) of 100%, a pest or weed control at 80 g/ha [14] of 90% and a pest or weed control at 80 g/ha ([15]; Echinochloa crus-galli, 504 h, read-out: Post-emergence action against ECHCG (herbicidal action in percent)) of 100%. The pest or weed control at 80 g/ha ([16]; Lolium rigidum, 504 h, read-out: Post-emergence action against LOLRI (herbicidal action in percent)) was 80%, the pest or weed control at 80 g/ha ([17]; Setaria viridis, 504 h, read-out: Post-emergence action against SETVI (herbicidal action in percent)) was 100% and the pest or weed control at 80 g/ha ([18]; Abutilon theophrasti, 504 h, read-out: Post-emergence action against ABUTH (herbicidal action in percent)) was 100%. It also gave a pest or weed control at 80 g/ha ([19]; Amaranthus retroflexus, 504 h, read-out: Post-emergence action against AMARE (herbicidal action in percent)) of 90%, a pest or weed control at 80 g/ha ([20]; Tripleurospermum inodorum, 504 h, read-out: Post-emergence action against MATIN (herbicidal action in percent)) of 100% and a pest or weed control at 80 g/ha ([21]; Ipomoea purpurea, 504 h) of 90%. For the same molecule, the pest or weed control at 80 g/ha [22] was 100%, the pest or weed control at 80 g/ha [23] was 100% and the pest or weed control at 80 g/ha [24] was 80%.
`CCn1nnnc1NC(=O)c1ccc(C(F)(F)F)c(C(=O)C2(C)CC2)c1Cl` [2-147] was tested, and the “Pre-emergence action against ALOMY (herbicidal activity in percent)” value [1] was 90%, the “Pre-emergence action against AVEFA (herbicidal activity)” value [2] was 90% and the “Pre-emergence action against CYPES (herbicidal activity)” value [3] was 80%. For the same molecule, the “Pre-emergence action against ECHCG (herbicidal activity)” value [4] was 100%, the “Pre-emergence action against LOLRI (herbicidal activity)” value [5] was 90% and the “SETVI (Table B8, pre-emergence herbicidal activity)” value [6] was 100%. The “Pre-emergence action against ABUTH (herbicidal activity)” value [7] was 100%, the “Pre-emergence action against AMARE (herbicidal activity)” value [8] was 100% and the “Pre-emergence action against MATIN” value [9] was 100%. For the same molecule, the “Pre-emergence action against STEME” value [11] was 100%, the “Pre-emergence action against VIOTR” value [12] was 100% and the “Pre-emergence action against VERPE” value [13] was 80%. The “Post-emergence action against AVEFA (herbicidal action in percent)” value [25] was 80%, the “Post-emergence action against ECHCG (herbicidal action in percent)” value [15] was 80% and the “Post-emergence action against LOLRI (herbicidal action in percent)” value [16] was 80%. The “Post-emergence action against SETVI (herbicidal action in percent)” value [17] was 80%, the “Post-emergence action against ABUTH (herbicidal action in percent)” value [18] was 90% and the “Post-emergence action against AMARE (herbicidal action in percent)” value [19] was 80%. The “Post-emergence action against MATIN (herbicidal action in percent)” value [20] was 100% and the “Post-emergence action against PHBPU” value [21] was 90.
